“And” between values parts separate entries of the source, which are not always exact repeats. Equal entries are not always repeated. Where two headings read alike, the source gives them in different places.
How the values were obtained:
[1] = system: 60 cancer cell lines (NCI 60 cancer cell line series); conditions: cited from earlier work
[2] = system: 60 cancer cell lines (NCI 60 cancer cell line series); assay: NCI-DTP in vitro cancer screen, sulforhodamine B (SRB) growth inhibition, 48 hour exposure; format: cell-based, human; parameters: key to sensitivity class Ovarian OVCAR-8 CL6005 / sensitivity class Ovarian SK-OV-3 CL6011 / sensitivity class Prostate DU-145 CL11003 / sensitivity class NSCLC NCI-H522 CL1003 / sensitivity class Ovarian IGROV1 CL6010 / sensitivity class Ovarian OVCAR-4 CL6002 / sensitivity class Prostate PC-3(I) CL11001 / sensitivity class Renal A498 CL9013 / sensitivity class Renal SN12C CL9008: sensitivity class: 1 = Low, 2 = Medium, 3 = High
Outline: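 Values come from the NCI-DTP screen database: -log GI50, the concentration giving 50% growth inhibition, derived from SRB cell-mass dose-response curves. Each line seeded at its own density, treated day 1 at five ten-fold-spaced doses in duplicate wells, stained after 48 h.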

Q: With `CC[C@@]1(O)C(=O)OCc2c1cc1n(c2=O)Cc2cc3c(CN(C)C)c(O)ccc3nc2-1` [Topotecan] as the molecule, how does the “-Log (GI50)” value ([1]; Breast MCF7(I) (CL5001)) read?
A: 8.0 and 7.8

Q: And the “-Log (GI50)” value ([1]; Breast T-47D (CL5014))?
A: 8.0 and 7.7

Q: What about the “-Log (GI50)” value ([1]; CNS SF-268 CL12014) of the same molecule?
A: 7.7

Q: And the “-Log (GI50)” value ([1]; CNS SF-539 CL12016)?
A: 7.7 and 7.8

Q: What about the “-Log (GI50)” value ([1]; CNS SNB-19 (CL12002)) of the same molecule?
A: 7.5 and 7.6

Q: And the “-Log (GI50)” value ([1]; CNS U251(I) CL12009)?
A: 7.5 and 7.8

Q: What about the “-Log (GI50)” value ([1]; Colon HCT-15 CL4015) of the same molecule?
A: 6.2 and 6.3

Q: And the “-Log (GI50)” value ([1]; Colon KM12 (CL4017))?
A: 6.5 and 6.4

Q: What about the “-Log (GI50)” value ([1]; Leukemia CCRF-CEM(I) (CL7003)) of the same molecule?
A: 7.9

Q: What about the “-Log (GI50)” value ([1]; Leukemia MOLT-4 (CL7006)) of the same molecule?
A: 7.9

Q: And the “-Log (GI50)” value ([1]; Melanoma LOX IMVI CL10001)?
A: 7.7 and 7.8

Q: What about the “-Log (GI50)” value ([1]; Melanoma M14 (CL10014)) of the same molecule?
A: 7.5 and 7.8

Q: What about the “-Log (GI50)” value ([1]; Melanoma SK-MEL-2 (CL10005)) of the same molecule?
A: 5.7 and 6.0

Q: What about the “-Log (GI50)” value ([1]; Melanoma SK-MEL-5 (CL10007)) of the same molecule?
A: 7.2 and 7.5

Q: And the “-Log (GI50)” value ([1]; Melanoma UACC-62 (CL10020))?
A: 7.8 and 7.7

Q: And the “-Log (GI50)” value ([1]; NCSLC NCI-H522 CL1003)?
A: 7.3 and 7.5

Q: What about the “-Log (GI50)” value ([1]; NSCLC A549/ATCC (CL1004)) of the same molecule?
A: 7.0 and 7.3

Q: And the “-Log (GI50)” value ([1]; NSCLC HOP-62 (CL1026))?
A: 7.9

Q: What about the “-Log (GI50)” value ([1]; NSCLC NCI-H23(I) CL1001) of the same molecule?
A: 7.4

Q: What about the “-Log (GI50)” value ([1]; NSCLC NCI-H460 CL1021) of the same molecule?
A: 7.7

Q: And the “-Log (GI50)” value ([1]; Ovarian IGROV1 CL6010)?
A: 6.3 and 6.4

Q: And the “-Log (GI50)” value ([1]; Ovarian SK-OV-3 CL6011)?
A: 7.1 and 7.2

Q: And the “-Log (GI50)” value ([1]; Prostate DU-145 CL11003)?
A: 8.0 and 7.8

Q: What about the “-Log (GI50)” value ([1]; Renal A498 CL9013) of the same molecule?
A: 6.7 and 7.0

Q: What about the “-Log (GI50)” value ([1]; Renal ACHN CL9023) of the same molecule?
A: 7.7 and 7.8

Q: And the “-Log (GI50)” value ([1]; Renal CAKI-1 CL9015)?
A: 7.9 and 7.8

Q: What about the “-Log (GI50)” value ([1]; Renal SN12C CL9008) of the same molecule?
A: 7.6 and 7.5

Q: What about the “-Log (GI50)” value ([1]; Renal TK10 CL9024) of the same molecule?
A: 5.1 and 5.3

Q: And the “-Log (GI50)” value ([1]; Renal UO-31 CL9004)?
A: 7.0 and 7.2

Q: What about the “classification of cell line as Low(1), Medium(2) or High(3) sensitivity to compound” value (“classification of cell line” for short) ([2]; Breast HS-578T CL5006) of the same molecule?
A: 1

Q: What about the “classification of cell line” value ([2]; Breast MDA-MB-231 CL5005) of the same molecule?
A: 1

Q: And the “classification of cell line” value ([2]; Breast MDA-MB-435 (CL5011))?
A: 2

Q: And the “classification of cell line” value ([2]; Breast MDA-N CL5012)?
A: 2

Q: And the “classification of cell line” value ([2]; Breast T-47D (CL5014))?
A: 3

Q: And the “classification of cell line” value ([2]; CNS SF-268 CL12014)?
A: 3

Q: And the “classification of cell line” value ([2]; CNS SF-539 CL12016)?
A: 3

Q: And the “classification of cell line” value ([2]; CNS SNB-19 (CL12002))?
A: 2

Q: What about the “classification of cell line” value ([2]; CNS SNB-75(I) CL12005) of the same molecule?
A: 2

Q: What about the “classification of cell line” value ([2]; Colon COLO-250 CL4010) of the same molecule?
A: 1

Q: What about the “classification of cell line” value ([2]; Colon HCT-15 CL4015) of the same molecule?
A: 1

Q: And the “classification of cell line” value ([2]; Colon HCT-116 (CL4003))?
A: 2

Q: What about the “classification of cell line” value ([2]; Colon HT29(I) CL4001) of the same molecule?
A: 2

Q: And the “classification of cell line” value ([2]; Colon SW-620 (CL4009))?
A: 2

Q: What about the “classification of cell line” value ([2]; Leukemia CCRF-CEM(I) (CL7003)) of the same molecule?
A: 3

Q: What about the “classification of cell line” value ([2]; Leukemia K562(I) CL7005) of the same molecule?
A: 2

Q: And the “classification of cell line” value ([2]; Leukemia MOLT-4 (CL7006))?
A: 3

Q: What about the “classification of cell line” value ([2]; Leukemia RPMI-8226(I) (CL7010)) of the same molecule?
A: 2

Q: What about the “classification of cell line” value ([2]; Melanoma LOX IMVI CL10001) of the same molecule?
A: 3

Q: What about the “classification of cell line” value ([2]; Melanoma MALME-3M CL10002) of the same molecule?
A: 2

Q: And the “classification of cell line” value ([2]; Melanoma SK-MEL-2 (CL10005))?
A: 1

Q: And the “classification of cell line” value ([2]; Melanoma SK-MEL-5 (CL10007))?
A: 2

Q: What about the “classification of cell line” value ([2]; Melanoma SK-MEL-28 (CL10008)) of the same molecule?
A: 1

Q: What about the “classification of cell line” value ([2]; Melanoma UACC-257 (CL10021)) of the same molecule?
A: 2

Q: What about the “classification of cell line” value ([2]; NSCLC A549/ATCC (CL1004)) of the same molecule?
A: 2

Q: What about the “classification of cell line” value ([2]; NSCLC HOP-62 (CL1026)) of the same molecule?
A: 3

Q: What about the “classification of cell line” value ([2]; NSCLC HOP-92 (CL1029)) of the same molecule?
A: 2

Q: What about the “classification of cell line” value ([2]; NSCLC NCI-H226 CL1013) of the same molecule?
A: 2

Q: And the “sensitivity class NSCLC NCI-H23(I) CL1001” value ([2]; cell line NSCLC NCI-H23(I), CL1001)?
A: 2

Q: What about the “sensitivity class NSCLC NCI-H460 CL1021” value ([2]; cell line NSCLC NCI-H460, CL1021) of the same molecule?
A: 3

Q: What about the “sensitivity class NSCLC NCI-H522 CL1003” value ([2]; cell line NSCLC NCI-H522, CL1003) of the same molecule?
A: 2

Q: What about the “sensitivity class Ovarian OVCAR-4 CL6002” value ([2]; cell line Ovarian OVCAR-4, CL6002) of the same molecule?
A: 1

Q: What about the “sensitivity class Ovarian OVCAR-5 CL6003” value ([2]; cell line Ovarian OVCAR-5, CL6003) of the same molecule?
A: 2

Q: What about the “sensitivity class Ovarian OVCAR-8 CL6005” value ([2]; cell line Ovarian OVCAR-8, CL6005) of the same molecule?
A: 2

Q: What about the “sensitivity class Ovarian SK-OV-3 CL6011” value ([2]; cell line Ovarian SK-OV-3, CL6011) of the same molecule?
A: 2

Q: What about the “sensitivity class Prostate DU-145 CL11003” value ([2]; cell line Prostate DU-145, CL11003) of the same molecule?
A: 3

Q: What about the “sensitivity class Prostate PC-3(I) CL11001” value ([2]; cell line Prostate PC-3(I), CL11001) of the same molecule?
A: 2

Q: And the “sensitivity class Renal 786-O CL9018” value ([2]; cell line Renal 786-O, CL9018)?
A: 3

Q: And the “sensitivity class Renal A498 CL9013” value ([2]; cell line Renal A498, CL9013)?
A: 2

Q: And the “sensitivity class Renal ACHN CL9023” value ([2]; cell line Renal ACHN, CL9023)?
A: 3

Q: What about the “sensitivity class Renal CAKI-1 CL9015” value ([2]; cell line Renal CAKI-1, CL9015) of the same molecule?
A: 3

Q: What about the “sensitivity class Renal RXF-393 CL9016” value ([2]; cell line Renal RXF-393, CL9016) of the same molecule?
A: 2

Q: What about the “sensitivity class Renal TK10 CL9024” value ([2]; cell line Renal TK10, CL9024) of the same molecule?
A: 1

Q: What about the “sensitivity class Renal UO-31 CL9004” value ([2]; cell line Renal UO-31, CL9004) of the same molecule?
A: 2

Source: patent US20020051978A1, “Methods and compositions for the identification, assessment, prevention and therapy of human cancers” (priority 2000, published 2002)
